Publication PMC2829070 (PLoS Pathogens, 2010)
Where “and” joins values, the source holds several entries; their conditions need not be identical. Identical values can stand only once.

Key:
[1] = system: HN30408cl7 (H5N1); design: species or system BALB/c mice; conditions: mouse, in vivo
[2] = system: Ind3006 (H5N1); type: in vivo, BALB/c mice; conditions: 21 days
[3] = system: HN30408cl7 (H5N1); design: species or system BALB/c mice; Virus titers in Lungs, Day 6 / Virus titers in Lungs, Day 9 / Virus titers in Brain, Day 9: unit not given here; conditions: mouse, in vivo
[4] = system: Ind3006 (H5N1); design: species or system BALB/c mice; Virus titers in Lungs, Day 6 / Virus titers in Brain, Day 6: unit not given here; conditions: mouse, in vivo
[5] = system: HN30408cl7 (H5N1); type: in vivo, BALB/c mice; conditions: 21 days
[6] = system: HN30408cl7 (H5N1); design: species or system BALB/c mice; Virus titer in Lungs, Day 3 / Virus titer in Lungs, Day 6: unit not given here; conditions: mouse, in vivo
[7] = system: NA of A/Panama/2007/99 (H3N2); type: binding, influenza A virus (H3N2)
[8] = target: NA of Ind3006 (A/Indonesia/UT3006/05, H5N1) (Influenza A virus, UniProt I6YWY9); assay: biochemical
[9] = system: NA of B/Mie/1/93; type: binding, influenza B virus
[10] = system: NA of A/New Caledonia/20/99 (H1N1); type: binding, influenza A virus (H1N1)

Compound | prophylactic efficacy (survival) [1] | mice protected from lethal infection [2] | Virus titers in Brain, Day 3 [3] | Virus titers in Brain, Day 3 [4] | Virus titers in Brain, Day 6 [4] | Virus titers in Brain, Day 9 [4] | Virus titers in Lungs, Day 6 [4] | Virus titers in Lungs, Day 9 [4] | mice protected from lethal infection [5] | Virus titer in Brain, Day 3 [6] | Slope of the dissociation curve [7] | IC50 [8] | Slope of the dissociation curve [9] | Slope of the dissociation curve [10] | other results
[H]/N=C(\N)N[C@H]1C=C(C(=O)O)O[C@@H]([C@H](OC)[C@H](O)COC(=O)CCCCCCC)[C@@H]1NC(C)=O [CS-8958] | limited | 70% | <1.6 | <1.6 | <1.6 | <1.6 | 7.2±0.1 and 4.5±1.4 | <1.7 | 90% | <1.6 |  |  |  |  | protection from the lethal infection (prophylaxis) [1]: significantly protected; Virus titers in Brain, Day 6 [3]: 2.0±0.3 and <1.6
CCC(CC)O[C@@H]1C=C(C(=O)O)C[C@H](N)[C@H]1NC(C)=O [Oseltamivir carboxylate] |  |  |  |  |  |  |  |  |  |  | 6.97 | 10 nM | 381.21 | 173.34 | recovery of NA activity [9]: almost fully recovered
CCOC(=O)C1=C[C@@H](OC(CC)CC)[C@H](NC(C)=O)[C@@H](N)C1 [Oseltamivir phosphate] | limited | less than half | <1.6 | <1.6 | 3.1±0.3 and 2.6±0.1 and 3.2±1.2 and 3.3±0.9 | <1.6 | 7.5±0.2 and 7.4±0.2 and 7.4±0.1 and 7.2±0.1 | <1.7 | less than half | <1.6 |  |  |  |  | mice saved from lethal infection [2]: 50%; Virus titers in Brain, Day 9 [3]: 4.8 and 4.7±0.4 and 3.7 and 5.1; Virus titers in Lungs, Day 3 [3]: 6.0±0.1 and 5.0±0.6 and 6.2±0.2; Virus titers in Lungs, Day 6 [3]: 5.2±0.1 and 5.5±0.4 and 3.8±0.5 and 6.4±0.6; Virus titers in Lungs, Day 9 [3]: 4.9±1.8 and 4.7±0.6 and 4.7±1.4 and 6.1; Virus titers in Lungs, Day 3 [4]: 7.5±0.1 and 7.2±0.1 and 7.1±0.2; mice saved from lethal infection [5]: 90%; Virus titer in Brain, Day 6 [6]: 2.6 and <1.6; Virus titer in Lungs, Day 3 [6]: 5.5±0.7 and 4.3±1.9 and 3.2±2.9 and 5.8±0.8; Virus titer in Lungs, Day 6 [6]: 5.6±0.4 and 6.1±0.2 and 6.0±0.0 and 6.0±0.4
CC(=O)N[C@H]1[C@H]([C@H](O)[C@H](O)CO)OC(C(=O)O)=C[C@@H]1N=C(N)N [Zanamivir] |  |  |  |  |  |  |  |  |  |  | 2.10 | 0.07 nM | 184.10 | 140.10 | 
Peramivir |  |  |  |  |  |  |  |  |  |  | 0.19 |  | 180.66 | 43.10 | Slope difference [7]: -48.81; Slope difference [9]: -773.42; Slope difference [10]: -456.52
